Measured values taken from patent publication US20170174649A1, “ESTERS OF ACETALS, COMPOSITION THEREOF, METHODS OF PREPARATION AND MAIN USES THEREOF IN COSMETIC AREA” (GLYCEROSOLUTION QUIMICA LTDA, priority 2015, published 2017).

Assays:
[1] = Solubility of sunscreens using cocoil glyceryl acetal as solubilizing agent; assay type: physicochemical; settings: solvent cocoil glyceryl acetal
[2] = Tests of skin irritation (OECD and GHS); assay type: in vivo
Description: Two new batches of cocoil glyceryl acetal were sent to confirm the tests of dermal irritation.

[3] = Tests of ocular irritation (OECD and GHS); assay type: in vivo; settings: rules of OECD and GHS
Description: In the tests of ocular irritation, the product has been classified as non-irritating according to the rules of OECD and GHS.

[4] = Tests of oral toxicity (GHS classification); assay type: in vivo; settings: rules of GHS

| Compound | Solubility at 25° C. [1] | Skin irritation finding ([2]; one of the tests) | Skin irritation classification ([2]; two tests, rules of OECD and GHS) | Ocular irritation classification [3] | Oral toxicity classification [4] |
| --- | --- | --- | --- | --- | --- |
| COc1ccc(C(=O)CC(=O)c2ccc(C(C)(C)C)cc2)cc1 [4-(1,1-dimethylethyl)-4-methoxydibenzoylmethane] | 14.0 grams/100 grams of cocoil glyceryl acetal |  |  |  |  |
| cocoil glyceryl acetal |  | mild dermal irritation | non-irritating | non-irritating | class 5 (non-toxic) |
| CCCCCCOC(=O)c1ccccc1C(=O)c1ccc(N(CC)CC)cc1O [Diethylamino hydroxybenzoi hexyl benzoate] | 18.0 grams/100 grams of cocoil glyceryl acetal |  |  |  |  |
| CCCCC(CC)COC(=O)c1ccc(Nc2nc(Nc3ccc(C(=O)OCC(CC)CCCC)cc3)nc(Nc3ccc(C(=O)OCC(CC)CCCC)cc3)n2)cc1 (stereo not shown) [Ethylhexyl Triazone] | 16.0 grams/100 grams of cocoil glyceryl acetal |  |  |  |  |
